Paper PMC5573420, “Correlation between human ether‐a‐go‐go‐related gene channel inhibition and action potential prolongation” (British Journal of Pharmacology, 2017)
Values joined by “and” are separate entries in the source; they are usually repeats but may differ in a detail not shown here. Equal entries are not always repeated. “Also recorded” adds a separate entry of the source. Where two headings read alike, the source gives them in different places.

How the values were obtained:
hiPSC-CMs = assay: Optical measurement of action potential duration (APD90) in hiPSC-CMs using voltage-sensitive dye di-4-ANEPPS; settings: for Maximal AP prolongation: maximal level over concentrations tested
Experimental: The plates were then incubated at 37°C, 5% CO2. Forty‐eight hours post‐thaw, 100% of the plating medium was replaced with CDI Maintenance Medium (CDI, CMC‐100‐120‐001), and further, 100% media changes were performed every 2 days after that.
Afterwards, the medium containing VSD was replaced by fresh serum‐free medium, and the cells were returned to the incubator. The multi‐well plate was placed in an environmentally controlled stage incubator (37°C, 5% CO2, water‐saturated air atmosphere) (Okolab Inc, Burlingame, CA, USA) of the CelIOPTIQ platform (Clyde Biosciences Ltd, Glasgow, Scotland). The di‐4‐ANEPPS fluorescence signal was recorded from a 0.2 × 0.2 mm area using a 40× (NA 0.6) objective lens. Excitation wavelength was 470 ± 10 nm using a light‐emitting diode (LED), and emitted light was collected by two photomultipliers (PMTs) at 510–560 and 590–650 nm respectively. LED, PMT, associated power supplies and amplifiers were supplied by Cairn Research Ltd (Kent, UK). […] A 20 s recording was then taken 30 min after exposure to the drug or vehicle with only one concentration applied per well. The records were subsequently analysed offline using proprietary software (CellOPTIQ). The procedure was repeated from four to five times, and parallel matched control (vehicle) measurements were taken on cardiomyocytes with equivalent concentrations of vehicle (DMSO). AP parameters were measured, including APD at 50, 75 and 90% repolarization (APD50, APD75 and APD90 respectively). Data are given as % change from control for the treated groups (vehicle, control and drug). This allowed a single comparison to be made at each concentration, and every experiment was performed with its own set of controls (vehicle). No data were used more than once.

hERG channels = hERG channels (Homo sapiens, UniProt Q12809); assay: hERG current inhibition, automated planar patch clamp in HEK293 cells stably expressing hERG
Chain of hERG channels (Q12809 whole entry): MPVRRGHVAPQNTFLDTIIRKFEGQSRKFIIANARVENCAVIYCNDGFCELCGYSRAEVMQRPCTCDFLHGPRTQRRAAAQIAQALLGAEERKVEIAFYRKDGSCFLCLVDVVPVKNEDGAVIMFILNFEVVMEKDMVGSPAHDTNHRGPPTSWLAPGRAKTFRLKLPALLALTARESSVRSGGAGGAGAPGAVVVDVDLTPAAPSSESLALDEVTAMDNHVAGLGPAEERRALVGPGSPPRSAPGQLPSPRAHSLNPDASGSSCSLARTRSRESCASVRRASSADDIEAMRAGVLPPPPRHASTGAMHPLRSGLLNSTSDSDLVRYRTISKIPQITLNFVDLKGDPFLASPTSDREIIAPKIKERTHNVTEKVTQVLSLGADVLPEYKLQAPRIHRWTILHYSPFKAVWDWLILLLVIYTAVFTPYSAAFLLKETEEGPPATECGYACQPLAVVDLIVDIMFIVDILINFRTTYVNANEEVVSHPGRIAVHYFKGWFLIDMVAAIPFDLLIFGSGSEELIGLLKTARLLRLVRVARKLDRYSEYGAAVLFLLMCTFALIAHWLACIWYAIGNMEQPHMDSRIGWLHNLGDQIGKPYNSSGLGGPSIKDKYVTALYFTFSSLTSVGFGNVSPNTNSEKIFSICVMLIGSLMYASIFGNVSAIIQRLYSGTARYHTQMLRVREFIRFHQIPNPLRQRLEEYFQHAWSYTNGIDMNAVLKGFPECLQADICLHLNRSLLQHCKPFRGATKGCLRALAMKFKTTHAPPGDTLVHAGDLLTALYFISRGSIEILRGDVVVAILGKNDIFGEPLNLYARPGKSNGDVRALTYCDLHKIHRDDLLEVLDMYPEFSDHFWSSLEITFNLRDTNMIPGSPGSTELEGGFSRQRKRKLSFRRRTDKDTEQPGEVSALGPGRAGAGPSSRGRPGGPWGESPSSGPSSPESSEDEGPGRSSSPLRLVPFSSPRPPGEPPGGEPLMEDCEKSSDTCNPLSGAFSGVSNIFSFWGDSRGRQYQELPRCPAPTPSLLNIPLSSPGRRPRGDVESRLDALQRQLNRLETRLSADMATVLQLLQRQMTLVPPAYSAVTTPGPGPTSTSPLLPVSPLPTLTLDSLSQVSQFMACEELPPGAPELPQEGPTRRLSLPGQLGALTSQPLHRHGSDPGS
Experimental: (§1) Currents were low‐pass filtered at 10 kHz using the internal Bessel filter and sampled at 25 kHz. The extracellular solution for hERG current recording contained 140 mM NaCl, 4 mM KCl, 2 mM CaCl2, 1 mM MgCl2,5 mM D‐glucose and 10 mM HEPES (pH 7.4) (Sigma‐Aldrich). The intracellular solution for hERG current recording contained 50 mM KCl, 10 mM NaCl, 60 mM KF, 20 mM EGTA and 10 mM HEPES (pH 7.2). The extracellular solution for measuring sodium currents in HEK cells stably expressing the human clone of Nav1.5 (GenBank M77235) contained 4 mM KCl, 20 mM NaCl, 1.8 mM CaCl2, 0.75 mM MgCl2, 5 mM HEPES, 120 mM choline chloride and pH 7.4 using NaOH. The intracellular solution for sodium current recording contained 120 mM CsF, 20 mM CsCl, 5 mM EGTA, 5 mM HEPES and pH 7.4 using CsOH. All chemicals were obtained from Sigma‐Aldrich Chemie GmbH (Taufkirchen, Germany). The compound solutions were applied by means of the automated NPC‐16 Patchliner planar patch‐clamp platform.
Data are presented as mean ± SEM for at least five cells from two different batches or for three independent measurements with HEK293 cells.
The concentration–inhibition relationships were analysed by plotting the normalized values of peak tail current versus peak tail steady current in the presence of the respective cumulatively applied compound concentrations (Figure 4B, C). Data points were fitted using Hill equation.

hERG potassium channels = settings: cited from earlier work
[1] = target: Cav1.2 (rabbit α1-subunit with β2a and α2-δ1) (Oryctolagus cuniculus, UniProt P15381); assay: Barium current (IBa) inhibition through Cav1.2 in transfected tsA-201 cells, manual patch clamp; settings: rabbit
Chain of Cav1.2 (rabbit α1-subunit with β2a and α2-δ1) (P15381 whole entry, other chains not shown, the tested form may be a part): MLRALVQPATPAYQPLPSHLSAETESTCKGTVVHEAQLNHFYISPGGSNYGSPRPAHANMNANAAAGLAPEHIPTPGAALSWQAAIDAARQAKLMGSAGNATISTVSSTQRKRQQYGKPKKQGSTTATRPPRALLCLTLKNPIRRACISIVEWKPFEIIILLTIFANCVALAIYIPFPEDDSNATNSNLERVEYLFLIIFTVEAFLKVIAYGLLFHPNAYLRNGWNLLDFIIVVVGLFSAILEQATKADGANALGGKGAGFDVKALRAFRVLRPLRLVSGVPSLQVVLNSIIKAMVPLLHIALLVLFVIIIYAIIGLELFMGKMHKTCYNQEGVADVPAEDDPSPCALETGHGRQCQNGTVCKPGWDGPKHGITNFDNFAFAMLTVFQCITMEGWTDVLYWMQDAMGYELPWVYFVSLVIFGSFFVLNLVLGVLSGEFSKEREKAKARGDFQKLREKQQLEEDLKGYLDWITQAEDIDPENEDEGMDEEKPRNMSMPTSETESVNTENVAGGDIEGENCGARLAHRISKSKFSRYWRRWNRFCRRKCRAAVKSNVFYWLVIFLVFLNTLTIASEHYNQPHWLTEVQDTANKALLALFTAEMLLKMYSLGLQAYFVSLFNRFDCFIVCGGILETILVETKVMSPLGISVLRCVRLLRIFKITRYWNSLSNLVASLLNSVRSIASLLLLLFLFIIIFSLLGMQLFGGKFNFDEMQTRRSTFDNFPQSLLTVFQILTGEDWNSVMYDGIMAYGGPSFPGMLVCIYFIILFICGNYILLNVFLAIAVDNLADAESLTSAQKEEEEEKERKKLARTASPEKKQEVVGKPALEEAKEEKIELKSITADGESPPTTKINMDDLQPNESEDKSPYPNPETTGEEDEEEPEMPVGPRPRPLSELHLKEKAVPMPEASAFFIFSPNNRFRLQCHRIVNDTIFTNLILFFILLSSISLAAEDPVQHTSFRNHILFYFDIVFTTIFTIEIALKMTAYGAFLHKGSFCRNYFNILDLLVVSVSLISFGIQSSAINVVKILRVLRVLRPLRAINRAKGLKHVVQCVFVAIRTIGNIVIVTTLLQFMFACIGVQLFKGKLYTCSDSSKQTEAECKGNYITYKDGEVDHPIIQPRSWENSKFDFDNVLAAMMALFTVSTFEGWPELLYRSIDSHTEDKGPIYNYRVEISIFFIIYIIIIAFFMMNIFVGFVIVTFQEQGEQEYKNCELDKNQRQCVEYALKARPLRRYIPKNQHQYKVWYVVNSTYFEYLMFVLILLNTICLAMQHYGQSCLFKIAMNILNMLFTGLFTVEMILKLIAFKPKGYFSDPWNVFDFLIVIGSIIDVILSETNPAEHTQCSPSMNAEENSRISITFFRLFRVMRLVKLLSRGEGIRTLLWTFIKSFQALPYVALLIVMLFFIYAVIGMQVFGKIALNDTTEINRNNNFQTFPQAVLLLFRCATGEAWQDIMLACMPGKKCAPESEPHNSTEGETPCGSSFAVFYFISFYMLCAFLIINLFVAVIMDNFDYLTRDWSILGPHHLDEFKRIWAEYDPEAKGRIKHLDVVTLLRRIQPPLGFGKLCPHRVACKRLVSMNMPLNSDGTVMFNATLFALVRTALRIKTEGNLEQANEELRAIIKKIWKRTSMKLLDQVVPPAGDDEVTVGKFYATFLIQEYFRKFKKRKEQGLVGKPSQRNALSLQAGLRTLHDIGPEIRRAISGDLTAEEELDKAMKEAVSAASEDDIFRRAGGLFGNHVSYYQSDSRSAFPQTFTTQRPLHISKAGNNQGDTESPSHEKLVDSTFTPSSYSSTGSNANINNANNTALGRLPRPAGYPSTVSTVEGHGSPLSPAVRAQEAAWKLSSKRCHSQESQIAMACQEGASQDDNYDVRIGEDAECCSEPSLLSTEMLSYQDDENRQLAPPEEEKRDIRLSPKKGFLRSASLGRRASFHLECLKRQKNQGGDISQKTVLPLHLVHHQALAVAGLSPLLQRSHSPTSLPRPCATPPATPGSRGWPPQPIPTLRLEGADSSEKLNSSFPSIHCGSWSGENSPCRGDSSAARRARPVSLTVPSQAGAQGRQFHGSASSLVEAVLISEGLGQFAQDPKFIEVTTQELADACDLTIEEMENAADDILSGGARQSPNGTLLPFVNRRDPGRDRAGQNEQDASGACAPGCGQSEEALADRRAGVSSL
Chain of Cav1.2 (rabbit α1-subunit with β2a and α2-δ1) (P13806 27-960 partner limits assumed, other chains not shown): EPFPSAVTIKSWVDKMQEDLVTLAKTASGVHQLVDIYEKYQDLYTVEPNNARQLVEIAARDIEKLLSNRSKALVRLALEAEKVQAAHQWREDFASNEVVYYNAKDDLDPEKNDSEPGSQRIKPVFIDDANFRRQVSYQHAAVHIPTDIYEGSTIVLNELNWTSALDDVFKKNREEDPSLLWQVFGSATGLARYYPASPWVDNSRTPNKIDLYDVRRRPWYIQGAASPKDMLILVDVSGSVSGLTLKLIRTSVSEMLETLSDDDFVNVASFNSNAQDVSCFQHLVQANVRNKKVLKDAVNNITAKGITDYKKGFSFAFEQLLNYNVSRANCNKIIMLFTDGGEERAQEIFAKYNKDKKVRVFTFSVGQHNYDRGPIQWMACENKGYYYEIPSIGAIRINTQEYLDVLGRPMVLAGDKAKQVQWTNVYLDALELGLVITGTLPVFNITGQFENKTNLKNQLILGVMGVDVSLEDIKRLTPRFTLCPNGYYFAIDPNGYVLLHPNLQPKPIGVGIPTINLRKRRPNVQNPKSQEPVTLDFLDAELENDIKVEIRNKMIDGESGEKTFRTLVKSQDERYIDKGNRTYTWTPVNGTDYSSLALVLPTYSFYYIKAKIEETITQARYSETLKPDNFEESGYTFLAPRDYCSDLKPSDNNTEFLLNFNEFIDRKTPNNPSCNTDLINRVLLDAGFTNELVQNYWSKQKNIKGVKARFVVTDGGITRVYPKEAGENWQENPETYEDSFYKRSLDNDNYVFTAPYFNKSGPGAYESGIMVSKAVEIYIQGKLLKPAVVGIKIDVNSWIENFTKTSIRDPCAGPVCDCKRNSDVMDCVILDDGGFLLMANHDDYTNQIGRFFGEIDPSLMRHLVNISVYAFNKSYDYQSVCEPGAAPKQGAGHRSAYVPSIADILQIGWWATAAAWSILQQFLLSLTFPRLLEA
Chain of Cav1.2 (rabbit α1-subunit with β2a and α2-δ1) (P13806 961-1106 partner limits assumed, other chains not shown): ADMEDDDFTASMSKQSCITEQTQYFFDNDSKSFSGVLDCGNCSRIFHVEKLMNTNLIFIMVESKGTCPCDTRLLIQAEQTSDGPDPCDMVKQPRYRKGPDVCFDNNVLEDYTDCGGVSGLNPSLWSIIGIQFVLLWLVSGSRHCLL
Experimental: (§2) The transfection of tsA‐201 cells was performed using the FUGENE6 Transfection Reagent (Roche Diagonstics GmbH, Mannheim, Germany) following standard protocols. The tsA‐201 cells were used until passage number 15. […] The extracellular bath solution (in mM: BaCl2 20, MgCl2 1, HEPES 10, choline‐Cl 90) was titrated to pH 7.4 with methanesulfonic acid. […] The drugs were applied to cells under voltage clamp using a microminifold perfusion system. Ca^2+ channel block was estimated as peak IBa inhibition during a train of short (50 ms) test pulses from −80 mV at a frequency of 0.2 Hz. Patch clamp experiments to study hERG, Nav1.5 and Cav1.2 currents were performed at room temperature (22–25°C). All data were digitized and saved to disc. Current traces were filtered at 5 kHz and sampled at 10 kHz. The pClamp software package (Version 7.0 Axon Instruments, Inc.) was used for data acquisition and preliminary analysis. Microcal Origin 7.0 was used for analysis, and sigmoidal curves were fitted using the Hill equation.
(§3) Use‐dependent channel inhibition was studied during trains of 1 Hz and 50 ms test pulses (from −80 to +10 mV). After the application of 20 test pulses in control (absence of drug), the cells were incubated for 3 min with drug at rest. Peak current inhibition during the first pulse (1st, Figure 6C) in the presence of the drug reflects ‘resting state’ block. Additional current inhibition during a subsequently applied pulse train illustrates use‐dependent block. Peak current inhibition in control and drug are compared in Figure 6D.

[2] = target: rabbit CaV1.2 α1-subunit with β2a and α2-δ1 (Oryctolagus cuniculus, UniProt P15381); assay: as above; settings: for Peak current decay after 20 pulses at 1 Hz (use-dependent block): 50 ms pulses from -80 to +10 mV, control 12 ± 2%; for Resting state and use-dependent block of Cav1.2: 1 Hz trains of 50 ms pulses after 3 min incubation at rest
Chain of rabbit CaV1.2 α1-subunit with β2a and α2-δ1 (P15381 whole entry, other chains not shown): as the sequence (P15381 whole entry, other chains not shown, the tested form may be a part) above
Chain of rabbit CaV1.2 α1-subunit with β2a and α2-δ1 (P13806 27-960 partner limits assumed, other chains not shown): as the sequence (P13806 27-960 partner limits assumed, other chains not shown) above
Chain of rabbit CaV1.2 α1-subunit with β2a and α2-δ1 (P13806 961-1106 partner limits assumed, other chains not shown): as the sequence (P13806 961-1106 partner limits assumed, other chains not shown) above
Experimental: as §2, §3

Nav1.5 = Nav1.5 (Homo sapiens, UniProt Q14524); assay: Sodium current inhibition in HEK cells stably expressing Nav1.5, planar patch clamp
Experimental: as §1

[3] = Homo sapiens, 0.5 h, read-out: Changes in APD90 in hiPSC-CMs
[4] = Homo sapiens, read-out: D150 (concentration that prolongs the AP by 50%), APD90 in hiPSC-CMs
[5] = read-out: Ki binding studies, radioligand binding, ref Shagufta et al 2009
[6] = Homo sapiens, 0.5 h, read-out: Changes in APD90 in hiPSC-CMs, 1 nM, 30 min exposure
[7] = Homo sapiens, 0.5 h, read-out: Changes in APD90 in hiPSC-CMs, 10 nM, 30 min exposure
[8] = Homo sapiens, 0.5 h, read-out: Changes in APD90 in hiPSC-CMs, 30 nM, 30 min exposure
[9] = Homo sapiens, 0.5 h, read-out: Changes in APD90 in hiPSC-CMs, 100 nM, 30 min exposure
[10] = Homo sapiens, 0.5 h, read-out: Changes in APD90 in hiPSC-CMs, 300 nM, 30 min exposure
[11] = Homo sapiens, read-out: D150 (concentration that prolongs the AP by 50%)
[12] = Nav1.5 IC50 (peak INa inhibition), holding potential -140 mV, 0.2 Hz

Structure (SMILES)	activity at 0.01 µM (hiPSC-CMs; [3]) [%]	activity at 0.1 µM (hiPSC-CMs; [3]) [%]	activity at 0.3 µM (hiPSC-CMs; [3]) [%]	activity at 1 µM (hiPSC-CMs; [3]) [%]	EC (50% APD prolongation) (hiPSC-CMs; [4]) [µM]	Incidence of EADs (hiPSC-CMs; hiPSC-CMs)	IC50 (hERG channels) [nM]	Ki (hERG potassium channels; [5]) [nM]	Maximal AP prolongation (hiPSC-CMs; hiPSC-CMs) [%]	activity at 0.001 µM (hiPSC-CMs; [6]) [%]	activity at 0.01 µM (hiPSC-CMs; [7]) [%]	activity at 0.03 µM (hiPSC-CMs; [8]) [%]	EC (50% APD prolongation) (hiPSC-CMs; [11]) [µM]	also measured
CN(CCOc1ccccc1)CCc1ccccc1 [Dofe30]	99	105	190	140	0.213	without (if any) incidence of EADs	297 ± 77.5	> 10000	–	–	–	–	–	activity at 0.03 µM (hiPSC-CMs; [3]): 92%
CN(CCOc1ccc(Cl)cc1)CCc1ccc(Cl)cc1 [Dofe31]	100	108	214	296	0.151	–	–	–	–	–	–	–	–	Incidence of EADs (hiPSC-CMs): without (if any) incidence of EADs; activity at 0.001 µM (hiPSC-CMs; [3]): 127%; activity at 0.03 µM (hiPSC-CMs; [3]): 103%
Cc1ccc(CCN(C)CCOc2ccc(C)cc2)cc1 [Dofe33]	–	–	–	–	–	–	–	–	250	–	–	–	–	Effect on APD90 / AP prolongation (in words) (hiPSC-CMs): negligible effect on APD90 prolongation until 100 nM
CN(CCOc1ccc([N+](=O)[O-])cc1)CCc1ccc([N+](=O)[O-])cc1 [Dofe35]	–	–	–	–	–	incidence of EADs at the higher concentrations	22.1	–	≤ 1000	102	159	770	0.0083	activity at 0.1 µM (hiPSC-CMs; [9]): 746%; activity at 0.3 µM (hiPSC-CMs; [10]): 650%; Ki (hERG potassium channels): 5.7 ± 3 nM
CN(CCOc1ccc(Cl)cc1)CCc1ccccc1 [Dofe41]	140	144	162	262	0.157	without (if any) incidence of EADs	–	–	–	–	–	–	–	–
COc1ccc(OCCN(C)CCc2ccccc2)cc1 [Dofe42]	113	92	95	98	> 0.6	–	213 ± 83.5	3.3 ± 2	–	–	–	–	–	Effect on APD90 / AP prolongation (in words) (hiPSC-CMs; hiPSC-CMs): did not affect APD90 even at 1 μM; also recorded: did not induce prolongation of AP; IC50 ([1]; pH 7.4, Cav1.2 IC50 (peak IBa inhibition), 0.2 Hz, 50 ms pulses from -80 to +10 mV): 38000 ± 9300 nM; Peak current decay after 20 pulses at 1 Hz (use-dependent block) ([2]; 100 μM): 38 ± 2%; Resting state and use-dependent block of Cav1.2 [2]: pronounced resting state block and additional use‐dependent block; Shift of Nav1.5 concentration-response curve towards lower concentrations (Nav1.5; -80 mV versus -140 mV holding potential): 5.6 fold; IC50 (Nav1.5; Nav1.5 IC50 (peak INa inhibition), holding potential -80 mV): 13800 ± 1900 nM; IC50 (Nav1.5; [12]): 77900 ± 9700 nM
Cc1ccc(OCCN(C)CCc2ccccc2)cc1 [Dofe43]	167	156	175	390	0.0993	without (if any) incidence of EADs	–	–	–	–	–	–	–	–
CN(CCOc1ccc([N+](=O)[O-])cc1)CCc1ccccc1 [Dofe45]	71	89	95	215	0.538	without (if any) incidence of EADs	–	–	–	–	–	–	–	Effect on APD90 / AP prolongation (in words) (hiPSC-CMs; hiPSC-CMs): only slightly prolonged the AP; also recorded: slightly prolonged the AP at high concentrations; IC50 ([1]; pH 7.4, Cav1.2 IC50 (peak IBa inhibition)): 190 ± 3 nM; IC50 ([1]; pH 7.4, Cav1.2 IC50 used for AP simulation): 200 nM; Peak current decay after 20 pulses at 1 Hz (use-dependent block) ([2]; 100 nM): 42 ± 6%; Resting state and use-dependent block of Cav1.2 [2]: pronounced resting state block and additional use‐dependent block; Cav1.2 IC50 (peak IBa inhibition) ([2]; rabbit, pH 7.4): 192 ± 28 nM; IC50 (Nav1.5; [12]): 69700 ± 1000 nM; IC50 (Nav1.5; Nav1.5 IC50 used for AP simulation, value entered in in silico hiPSC-CM AP model (Figure 8C)): 8900 nM and 10000 nM; IC50 (Nav1.5; human, pH 7.4, Nav1.5 IC50 (peak INa inhibition)): 6400 ± 1000 nM
CCN(CCOc1ccc([N+](=O)[O-])cc1)CCc1ccc([N+](=O)[O-])cc1 [Dofe54]	–	–	–	–	–	incidence of EADs at the higher concentrations	2.6 ± 0.4	1.2 ± 0.6	≤ 1000	107	–	702	0.0043	activity at 0.1 µM (hiPSC-CMs; [9]): 710%
O=[N+]([O-])c1ccc(CCN(CCF)CCOc2ccc([N+](=O)[O-])cc2)cc1 [Dofe60]	–	–	–	–	–	incidence of EADs at the higher concentrations	–	–	≤ 1000	95	112	185	0.0213	activity at 0.1 µM (hiPSC-CMs; [9]): 771%; activity at 0.3 µM (hiPSC-CMs; [10]): 413%
CN(CCCOc1ccc([N+](=O)[O-])cc1)Cc1ccc([N+](=O)[O-])cc1 [Dofe78]	116	420	300	417	0.02	incidence of EADs at the higher concentrations	28.2 ± 4.9	5.1 ± 1.9	≤ 1000	–	–	–	–	–
CN(CCCCOc1ccc([N+](=O)[O-])cc1)CCc1ccc([N+](=O)[O-])cc1 [Dofe81]	–	–	–	–	–	incidence of EADs at the higher concentrations	10.7	–	≤ 1000	117	389	858	0.0025	Ki (hERG potassium channels): 1.8 ± 1.6 nM
CN(CCOc1ccc(NS(C)(=O)=O)cc1)CCc1ccc(NS(C)(=O)=O)cc1 [Dofetilide, reference compound]	–	–	–	–	4e-05	incidence of EADs at concentrations of 10, 30 and 100 nM	–	–	–	246	641	827	–	Spontaneous rate of myocyte contraction (hiPSC-CMs; 100 nM, hiPSC-CMs): dramatically increased; activity at 0.0001 µM (hiPSC-CMs; Homo sapiens, 0.5 h, read-out: Changes in APD90 in hiPSC-CMs, 0.1 nM, 30 min exposure): 191%; Ki (hERG potassium channels): 4.1 ± 0.9 nM
